# ChEMBL document CHEMBL1201861, “Genomics of Drug Sensitity in Cancer screening data, Wellcome Trust Sanger Institute”
# pIC50: −log10 of the molar value.
# What was measured:
# Experiment in all cases: cells
# Type in all cases: functional, cell-based
# Settings in all cases: Homo sapiens
# VA-ES-BJ = system: VA-ES-BJ;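 also: growth inhibition of the VA-ES-BJ cell line, read out by a cell viability assay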
# Description: SANGER: Inhibition of human VA-ES-BJ cell growth in a cell viability assay.
# NCI-H2126 = system: NCI-H2126;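 also: growth inhibition of the cancer cell line, determined with a cell viability readout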
# Description: SANGER: Inhibition of human NCI-H2126 cell growth in a cell viability assay.
# TE-9 = system: TE-9;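 also: cell growth inhibition, measured with a cell viability readout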
# Description: SANGER: Inhibition of human TE-9 cell growth in a cell viability assay.
# MPP-89 = system: MPP-89;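 also: growth inhibition of human MPP-89 cells, read out with a cell viability assay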
# Description: SANGER: Inhibition of human MPP-89 cell growth in a cell viability assay.
# GI-ME-N = system: GI-ME-N;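 also: growth inhibition of human GI-ME-N cells, read out with a cell viability assay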
# Description: SANGER: Inhibition of human GI-ME-N cell growth in a cell viability assay.
# ALL-PO = system: ALL-PO;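 also: growth inhibition of ALL-PO cells, read out by a cell viability assay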
# Description: SANGER: Inhibition of human ALL-PO cell growth in a cell viability assay.
# AM-38 = system: AM-38;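 also: growth inhibition of AM-38 cells of human origin, read out by a cell viability assay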
# Description: SANGER: Inhibition of human AM-38 cell growth in a cell viability assay.
# SCC-15 = system: SCC-15;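 also: growth inhibition of SCC-15 cells, read out with a cell viability assay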
# Description: SANGER: Inhibition of human SCC-15 cell growth in a cell viability assay.
# NCI-H1648 = system: NCI-H1648;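 also: cell viability assay measuring inhibition of NCI-H1648 cell growth, from the Sanger screening data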
# Description: SANGER: Inhibition of human NCI-H1648 cell growth in a cell viability assay.
# KINGS-1 = system: KINGS-1;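 also: cell viability assay measuring suppression of KINGS-1 cell growth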
# Description: SANGER: Inhibition of human KINGS-1 cell growth in a cell viability assay.
# EM-2 = system: EM-2;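 also: growth inhibition of EM-2 cells, read out with a cell viability assay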
# Description: SANGER: Inhibition of human EM-2 cell growth in a cell viability assay.
# NCI-H1299 = system: NCI-H1299;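 also: growth inhibition of human NCI-H1299 cells, read out by a cell viability assay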
# Description: SANGER: Inhibition of human NCI-H1299 cell growth in a cell viability assay.
# NCI-H1650 = system: NCI-H1650;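 also: growth inhibition of human NCI-H1650 cells measured by a cell viability assay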
# Description: SANGER: Inhibition of human NCI-H1650 cell growth in a cell viability assay.
# SF-539 = system: SF-539;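 also: Read-out is a cell viability assay, with IC50 reflecting inhibition of cell growth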
# Description: SANGER: Inhibition of human SF539 cell growth in a cell viability assay.
# NCI-H82 = system: NCI-H82;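 also: growth inhibition of NCI-H82 cells, measured with a cell viability readout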
# Description: SANGER: Inhibition of human NCI-H82 cell growth in a cell viability assay.
# BV-173 = system: BV-173
# Description: SANGER: Inhibition of human BV-173 cell growth in a cell viability assay.
# A3-KAW = system: A3-KAW;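 also: growth inhibition of human A3-KAW cells, read out with a cell viability assay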
# Description: SANGER: Inhibition of human A3-KAW cell growth in a cell viability assay.
# KMOE-2 = system: KMOE-2;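 also: growth inhibition of human KMOE-2 cells, read out with a cell viability assay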
# Description: SANGER: Inhibition of human KMOE-2 cell growth in a cell viability assay.
# D-263MG = system: D-263MG
# Description: SANGER: Inhibition of human D-263MG cell growth in a cell viability assay.
# J-RT3-T3-5 = system: J-RT3-T3-5;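 also: cell viability assay measuring growth inhibition of human J-RT3-T3-5 cells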
# Description: SANGER: Inhibition of human J-RT3-T3-5 cell growth in a cell viability assay.
# LNCaP-Clone-FGC = system: LNCaP-Clone-FGC
# Description: SANGER: Inhibition of human LNCaP-Clone-FGC cell growth in a cell viability assay.
# C8166 = system: C8166;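 also: growth inhibition of human C8166 cells measured by a cell viability assay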
# Description: SANGER: Inhibition of human C8166 cell growth in a cell viability assay.
# ES8 = system: ES8;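 also: growth inhibition of human ES8 cells, read out with a cell viability assay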
# Description: SANGER: Inhibition of human ES8 cell growth in a cell viability assay.
# K5 = system: K5
# Description: SANGER: Inhibition of human K5 cell growth in a cell viability assay.
# HAL-01 = system: HAL-01;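 also: growth inhibition of human HAL-01 cells, read out with a cell viability assay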
# Description: SANGER: Inhibition of human HAL-01 cell growth in a cell viability assay.
# MHH-NB-11 = system: MHH-NB-11;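 also: growth inhibition of human MHH-NB-11 cells, read out by a cell viability assay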
# Description: SANGER: Inhibition of human MHH-NB-11 cell growth in a cell viability assay.
# LB373-MEL-D = system: LB373-MEL-D;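 also: growth inhibition of the cell line, read out in a cell viability assay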
# Description: SANGER: Inhibition of human LB373-MEL-D cell growth in a cell viability assay.
# IST-MEL1 = system: IST-MEL1;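 also: growth inhibition of the cell line, read out with a cell viability assay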
# Description: SANGER: Inhibition of human IST-MEL1 cell growth in a cell viability assay.
# MS-1 = system: MS-1;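 also: growth inhibition of MS-1 cells, read out by cell viability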
# Description: SANGER: Inhibition of human MS-1 cell growth in a cell viability assay.
# MSTO-211H = system: MSTO-211H
# Description: SANGER: Inhibition of human MSTO-211H cell growth in a cell viability assay.
# NB10 = system: NB10;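 also: growth inhibition of NB10 cells, read out by a cell viability assay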
# Description: SANGER: Inhibition of human NB10 cell growth in a cell viability assay.
# MLMA = system: MLMA;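 also: growth inhibition of MLMA cells (human), determined through a cell viability readout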
# Description: SANGER: Inhibition of human MLMA cell growth in a cell viability assay.
# HOP-62 = system: HOP-62;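 also: cell growth inhibition determined with a viability assay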
# Description: SANGER: Inhibition of human HOP-62 cell growth in a cell viability assay.
# GR-ST = system: GR-ST
# Description: SANGER: Inhibition of human GR-ST cell growth in a cell viability assay.
# NCI-H747 = system: NCI-H747;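 also: growth inhibition of human NCI-H747 cells, read out by a cell viability assay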
# Description: SANGER: Inhibition of human NCI-H747 cell growth in a cell viability assay.
# SNU-5 = system: SNU-5;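 also: cell viability readout used to measure growth inhibition in human NCI-SNU-5 cells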
# Description: SANGER: Inhibition of human NCI-SNU-5 cell growth in a cell viability assay.
# BT-474 = system: BT-474
# Description: SANGER: Inhibition of human BT-474 cell growth in a cell viability assay.
# DSH1 = system: DSH1;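 also: growth inhibition of human DSH1 cells, measured with a cell viability readout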
# Description: SANGER: Inhibition of human DSH1 cell growth in a cell viability assay.
# TE-5 = system: TE-5;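 also: inhibition of cell growth, read out by a cell viability assay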
# Description: SANGER: Inhibition of human TE-5 cell growth in a cell viability assay.
# LB771-HNC = system: LB771-HNC;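 also: growth inhibition of LB771-HNC human cells, read out with a cell viability assay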
# Description: SANGER: Inhibition of human LB771-HNC cell growth in a cell viability assay.
# KALS-1 = system: KALS-1;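 also: growth inhibition of KALS-1 cells, determined with a cell viability assay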
# Description: SANGER: Inhibition of human KALS-1 cell growth in a cell viability assay.
# JAR = system: JAR;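 also: growth inhibition of human JAR cells determined with a cell viability assay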
# Description: SANGER: Inhibition of human JAR cell growth in a cell viability assay.
# MOLT-4 = system: MOLT-4;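 also: growth inhibition of MOLT-4 cells, determined with a cell viability readout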
# Description: SANGER: Inhibition of human MOLT-4 cell growth in a cell viability assay.
# NCI-H510A = system: NCI-H510A;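 also: growth inhibition of NCI-H510A cells, read out with a cell viability assay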
# Description: SANGER: Inhibition of human NCI-H510A cell growth in a cell viability assay.
# MOLT-16 = system: MOLT-16;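 also: growth inhibition of human MOLT-16 cells, read out with a cell viability assay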
# Description: SANGER: Inhibition of human MOLT-16 cell growth in a cell viability assay.
# SK-UT-1 = system: SK-UT-1;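 also: growth inhibition of SK-UT-1 cells, measured by a cell viability assay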
# Description: SANGER: Inhibition of human SK-UT-1 cell growth in a cell viability assay.
# NCI-H1304 = system: NCI-H1304;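 also: growth inhibition of the cancer cell line, measured in a cell viability assay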
# Description: SANGER: Inhibition of human NCI-H1304 cell growth in a cell viability assay.
# GAK = system: GAK;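 also: cell growth inhibition read out by a cell viability assay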
# Description: SANGER: Inhibition of human GAK cell growth in a cell viability assay.
# SK-NEP-1 = system: SK-NEP-1;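 also: growth inhibition of human SK-NEP-1 cells, read out by a cell viability assay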
# Description: SANGER: Inhibition of human SK-NEP-1 cell growth in a cell viability assay.
# COLO-800 = system: COLO-800;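 also: growth inhibition of COLO-800 cells, read out with a cell viability assay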
# Description: SANGER: Inhibition of human COLO-800 cell growth in a cell viability assay.
# SNU1 = system: SNU1;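 also: growth inhibition of human NCI-SNU-1 cells, measured with a cell viability assay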
# Description: SANGER: Inhibition of human NCI-SNU-1 cell growth in a cell viability assay.
# KS-1 = system: KS-1;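 also: growth inhibition of KS-1 cells, read out with a cell viability assay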
# Description: SANGER: Inhibition of human KS-1 cell growth in a cell viability assay.
# OCUB-M = system: OCUB-M;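 also: growth inhibition of the cancer cell line, read out through a cell viability assay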
# Description: SANGER: Inhibition of human OCUB-M cell growth in a cell viability assay.
# OS-RC-2 = system: OS-RC-2;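 also: growth inhibition of human OS-RC-2 cells, measured by a cell viability assay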
# Description: SANGER: Inhibition of human OS-RC-2 cell growth in a cell viability assay.
# no-10 = system: no-10;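 also: growth inhibition of no-10 cells, read out with a cell viability assay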
# Description: SANGER: Inhibition of human no-10 cell growth in a cell viability assay.
# DMS-79 = system: DMS-79;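 also: growth inhibition measured with a cell viability assay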
# Description: SANGER: Inhibition of human DMS-79 cell growth in a cell viability assay.
# Becker = system: Becker
# Description: SANGER: Inhibition of human Becker cell growth in a cell viability assay.
# 8-MG-BA = system: 8-MG-BA
# Description: SANGER: Inhibition of human 8-MG-BA cell growth in a cell viability assay.
# U-266 = system: U-266
# Description: SANGER: Inhibition of human U-266 cell growth in a cell viability assay.
# HL-60 = system: HL-60
# Description: SANGER: Inhibition of human HL-60 cell growth in a cell viability assay.
# EW-3 = system: EW-3
# Description: SANGER: Inhibition of human EW-3 cell growth in a cell viability assay.
# HCC2218 = system: HCC2218
# Description: SANGER: Inhibition of human HCC2218 cell growth in a cell viability assay.
# COR-L88 = system: COR-L88
# Description: SANGER: Inhibition of human COR-L88 cell growth in a cell viability assay.
# NB13 = system: NB13
# Description: SANGER: Inhibition of human NB13 cell growth in a cell viability assay.
# KU812 cell line = system: KU812 cell line
# Description: SANGER: Inhibition of human KU812 cell growth in a cell viability assay.
# KY821 = system: KY821
# Description: SANGER: Inhibition of human KY821 cell growth in a cell viability assay.
compound,measurement,setting,value
NC(=O)c1ncn([C@@H]2O[C@H](COP(=O)(O)O)[C@@H](O)[C@H]2O)c1N,pIC50,VA-ES-BJ,3.09
same,pIC50,NCI-H2126,< 2.70
same,pIC50,TE-9,< 2.70
same,pIC50,MPP-89,< 2.70
same,pIC50,GI-ME-N,< 2.70
same,pIC50,ALL-PO,3.12
same,pIC50,AM-38,2.99
same,pIC50,SCC-15,3.33
same,pIC50,NCI-H1648,< 2.70
same,pIC50,KINGS-1,< 2.70
same,pIC50,EM-2,3.64
same,pIC50,NCI-H1299,< 2.70
same,pIC50,NCI-H1650,< 2.70
same,pIC50,SF-539,< 2.70
same,pIC50,NCI-H82,3.00
same,pIC50,BV-173,4.03
same,pIC50,A3-KAW,3.43
same,pIC50,KMOE-2,3.38
same,pIC50,D-263MG,< 2.70
same,pIC50,J-RT3-T3-5,< 2.70
same,pIC50,LNCaP-Clone-FGC,< 2.70
same,pIC50,C8166,2.93
same,pIC50,ES8,< 2.70
same,pIC50,K5,< 2.70
same,pIC50,HAL-01,3.36
same,pIC50,MHH-NB-11,2.95
same,pIC50,LB373-MEL-D,< 2.70
same,pIC50,IST-MEL1,< 2.70
same,pIC50,MS-1,3.37
same,pIC50,MSTO-211H,2.76
same,pIC50,NB10,< 2.70
same,pIC50,MLMA,3.43
same,pIC50,HOP-62,< 2.70
same,pIC50,GR-ST,3.37
same,pIC50,NCI-H747,2.78
same,pIC50,SNU-5,< 2.70
same,pIC50,BT-474,< 2.70
same,pIC50,DSH1,< 2.70
same,pIC50,TE-5,< 2.70
same,pIC50,LB771-HNC,< 2.70
same,pIC50,KALS-1,2.94
same,pIC50,JAR,3.46
same,pIC50,MOLT-4,3.31
same,pIC50,NCI-H510A,< 2.70
same,pIC50,MOLT-16,< 2.70
same,pIC50,SK-UT-1,< 2.70
same,pIC50,NCI-H1304,< 2.70
same,pIC50,GAK,< 2.70
same,pIC50,SK-NEP-1,3.21
same,pIC50,COLO-800,< 2.70
same,pIC50,SNU1,3.33
same,pIC50,KS-1,2.90
same,pIC50,OCUB-M,2.92
same,pIC50,OS-RC-2,< 2.70
same,pIC50,no-10,< 2.70
same,pIC50,DMS-79,< 2.70
same,pIC50,Becker,< 2.70
same,pIC50,8-MG-BA,< 2.70
same,pIC50,U-266,< 2.70
same,pIC50,HL-60,3.43
CCNc1cc(N[C@H]2CC[C@@H](O)CC2)nc(Nc2ccc3c(ccn3Cc3ccccc3)c2)n1,pIC50,VA-ES-BJ,< 5.29
same,pIC50,NCI-H2126,< 5.29
same,pIC50,TE-9,< 5.29
same,pIC50,MPP-89,< 5.29
same,pIC50,GI-ME-N,< 5.29
same,pIC50,ALL-PO,< 5.29
same,pIC50,AM-38,< 5.29
same,pIC50,SCC-15,< 5.29
same,pIC50,NCI-H1648,< 5.29
same,pIC50,EW-3,< 5.29
same,pIC50,HCC2218,< 5.29
same,pIC50,KINGS-1,< 5.29
same,pIC50,COR-L88,< 5.29
same,pIC50,EM-2,< 5.29
same,pIC50,NCI-H1650,< 5.29
same,pIC50,SF-539,< 5.29
same,pIC50,NCI-H82,< 5.29
same,pIC50,NB13,< 5.29
same,pIC50,BV-173,< 5.29
same,pIC50,A3-KAW,5.72
same,pIC50,KMOE-2,< 5.29
same,pIC50,D-263MG,< 5.29
same,pIC50,J-RT3-T3-5,< 5.29
same,pIC50,LNCaP-Clone-FGC,< 5.29
same,pIC50,KU812 cell line,< 5.29
same,pIC50,C8166,< 5.29
same,pIC50,ES8,< 5.29
same,pIC50,K5,< 5.29
same,pIC50,HAL-01,< 5.29
same,pIC50,MHH-NB-11,< 5.29
same,pIC50,LB373-MEL-D,< 5.29
same,pIC50,IST-MEL1,< 5.29
same,pIC50,MS-1,< 5.29
same,pIC50,MSTO-211H,< 5.29
same,pIC50,NB10,< 5.29
same,pIC50,MLMA,< 5.29
same,pIC50,HOP-62,< 5.29
same,pIC50,GR-ST,< 5.29
same,pIC50,NCI-H747,< 5.29
same,pIC50,SNU-5,< 5.29
same,pIC50,BT-474,< 5.29
same,pIC50,DSH1,< 5.29
same,pIC50,TE-5,< 5.29
same,pIC50,LB771-HNC,< 5.29
same,pIC50,KALS-1,< 5.29
same,pIC50,JAR,< 5.29
same,pIC50,MOLT-4,< 5.29
same,pIC50,NCI-H510A,< 5.29
same,pIC50,MOLT-16,< 5.29
same,pIC50,SK-UT-1,< 5.29
same,pIC50,NCI-H1304,< 5.29
same,pIC50,GAK,< 5.29
same,pIC50,SK-NEP-1,< 5.29
same,pIC50,KY821,< 5.29
same,pIC50,COLO-800,< 5.29
same,pIC50,SNU1,< 5.29
same,pIC50,KS-1,5.37
same,pIC50,OCUB-M,< 5.29
same,pIC50,OS-RC-2,< 5.29
same,pIC50,no-10,< 5.29
same,pIC50,DMS-79,< 5.29
same,pIC50,Becker,< 5.29
same,pIC50,8-MG-BA,< 5.29
same,pIC50,U-266,< 5.29
same,pIC50,HL-60,< 5.29
CC(=O)c1c(C)c2cnc(Nc3ccc(N4CCNCC4)cn3)nc2n(C2CCCC2)c1=O [PALBOCICLIB],pIC50,VA-ES-BJ,6.14
same,pIC50,TE-9,< 5.40
same,pIC50,MPP-89,< 5.40
same,pIC50,GI-ME-N,< 5.40
same,pIC50,ALL-PO,< 5.40
same,pIC50,AM-38,< 5.40
same,pIC50,SCC-15,< 5.40
same,pIC50,EW-3,6.09
same,pIC50,HCC2218,5.63
same,pIC50,KINGS-1,< 5.40
same,pIC50,COR-L88,< 5.40
same,pIC50,EM-2,6.19
same,pIC50,NCI-H1299,5.52
same,pIC50,NCI-H1650,< 5.40
same,pIC50,SF-539,< 5.40
same,pIC50,NCI-H82,< 5.40
same,pIC50,NB13,< 5.40
same,pIC50,BV-173,6.19
same,pIC50,A3-KAW,5.96
same,pIC50,D-263MG,6.14
same,pIC50,J-RT3-T3-5,6.03
same,pIC50,LNCaP-Clone-FGC,< 5.40
same,pIC50,KU812 cell line,5.72
same,pIC50,C8166,< 5.40
same,pIC50,ES8,6.22
same,pIC50,HAL-01,6.22
same,pIC50,MHH-NB-11,6.66
same,pIC50,IST-MEL1,< 5.40
same,pIC50,MS-1,< 5.40
same,pIC50,MSTO-211H,5.77
same,pIC50,NB10,6.22
same,pIC50,MLMA,< 5.40
same,pIC50,GR-ST,< 5.40
same,pIC50,NCI-H747,5.63
same,pIC50,SNU-5,< 5.40
same,pIC50,BT-474,< 5.40
same,pIC50,DSH1,< 5.40
same,pIC50,TE-5,< 5.40
same,pIC50,LB771-HNC,< 5.40
same,pIC50,JAR,< 5.40
same,pIC50,MOLT-4,6.46
same,pIC50,MOLT-16,6.59
same,pIC50,NCI-H1304,< 5.40
same,pIC50,GAK,< 5.40
same,pIC50,SK-NEP-1,6.66
same,pIC50,KY821,6.50
same,pIC50,COLO-800,6.05
same,pIC50,SNU1,5.93
same,pIC50,KS-1,< 5.40
same,pIC50,OCUB-M,< 5.40
same,pIC50,OS-RC-2,6.28
same,pIC50,no-10,< 5.40
same,pIC50,Becker,5.53
same,pIC50,8-MG-BA,< 5.40
same,pIC50,U-266,< 5.40
same,pIC50,HL-60,6.47
CCCS(=O)(=O)Nc1ccc(F)c(C(=O)c2c[nH]c3ncc(Cl)cc23)c1F [PLX-4720],pIC50,VA-ES-BJ,< 5.00
same,pIC50,NCI-H2126,< 5.00
same,pIC50,TE-9,< 5.00
same,pIC50,MPP-89,< 5.00
same,pIC50,GI-ME-N,< 5.00
same,pIC50,ALL-PO,< 5.00
same,pIC50,AM-38,< 5.00
same,pIC50,SCC-15,< 5.00
same,pIC50,NCI-H1648,< 5.00
same,pIC50,HCC2218,6.06
same,pIC50,KINGS-1,< 5.00
same,pIC50,COR-L88,< 5.00
same,pIC50,EM-2,< 5.00
same,pIC50,NCI-H1299,< 5.00
same,pIC50,NCI-H1650,< 5.00
same,pIC50,SF-539,< 5.00
same,pIC50,NCI-H82,< 5.00
same,pIC50,NB13,5.35
same,pIC50,BV-173,6.10
same,pIC50,A3-KAW,< 5.00
same,pIC50,D-263MG,< 5.00
same,pIC50,J-RT3-T3-5,< 5.00
same,pIC50,LNCaP-Clone-FGC,< 5.00
same,pIC50,KU812 cell line,< 5.00
same,pIC50,C8166,< 5.00
same,pIC50,ES8,< 5.00
same,pIC50,K5,6.12
same,pIC50,HAL-01,< 5.00
same,pIC50,MHH-NB-11,< 5.00
same,pIC50,LB373-MEL-D,< 5.00
same,pIC50,IST-MEL1,< 5.00
same,pIC50,MS-1,< 5.00
same,pIC50,MSTO-211H,< 5.00
same,pIC50,NB10,< 5.00
same,pIC50,MLMA,< 5.00
same,pIC50,HOP-62,< 5.00
same,pIC50,GR-ST,< 5.00
same,pIC50,NCI-H747,< 5.00
same,pIC50,SNU-5,5.67
same,pIC50,BT-474,< 5.00
same,pIC50,DSH1,< 5.00
same,pIC50,TE-5,< 5.00
same,pIC50,LB771-HNC,< 5.00
same,pIC50,KALS-1,< 5.00
same,pIC50,JAR,< 5.00
same,pIC50,MOLT-4,< 5.00
same,pIC50,MOLT-16,< 5.00
same,pIC50,SK-UT-1,< 5.00
same,pIC50,NCI-H1304,< 5.00
same,pIC50,GAK,< 5.00
same,pIC50,SK-NEP-1,< 5.00
same,pIC50,KY821,5.04
same,pIC50,COLO-800,< 5.00
same,pIC50,SNU1,< 5.00
same,pIC50,KS-1,< 5.00
same,pIC50,OCUB-M,< 5.00
same,pIC50,OS-RC-2,< 5.00
same,pIC50,no-10,< 5.00
same,pIC50,Becker,< 5.00
same,pIC50,8-MG-BA,5.21
same,pIC50,U-266,< 5.00
same,pIC50,HL-60,< 5.00
